Results on 7 compounds are retold here after PubChem BioAssay AID1598.

The EC50 is the concentration at which the effect is half-maximal.

Inconclusive results are not listed.

The test system of this assay is SMN2 vs SMN1 luciferase splicing reporter cells. In words: enhancers of SMN2 over SMN1 splicing, cell-based, SMN2/SMN1 luciferase reporters (AID 1598). The following applies: measured here: SMN luciferase EC50 follow-up. (In a reporter assay the amount or activity of a reporter protein is the signal.)
`O[N+]1=CC=CCC1=S.On1ccccc1=S.[Zn]`: the EC50 was 1250 nM.
The figure for `CC[C@@]1(O)C[C@H](OC2CC(N(C)C)C(OC3CC(O)C(OC4CCC(=O)C(C)O4)C(C)O3)C(C)O2)c2c(cc3c(c2O)C(=O)c2c(O)cccc2C3=O)[C@H]1C(=O)OC` (some centres not stated) is 7000 nM.
The figure for `CO[C@@]1(NC(=O)Cc2cccs2)C(=O)N2C(C(=O)O)=C(COC(N)=O)CS[C@@H]21` is 2500 nM.
The same measure for `NC12CC3CC(CC(C3)C1)C2`: 400 nM.
For the compound `CC(C(=O)O)c1ccc(N2Cc3ccccc3C2=O)cc1` (configuration not stated), the EC50 was found to be 600 nM.
The same measure for `CC[C@@]1(O)C(=O)OCc2c1cc1n(c2=O)Cc2cc3ccccc3nc2-1`: 2500 nM.
The figure for `O=C1C=C2C(=CCOC2O)O1` (configuration not stated) is 5000 nM.
